The results in this text go back to ChEMBL document CHEMBL4421728, “Bach1 Inhibitors in Combination with Nrf2 Activators and Pharmaceutical Compositions Thereof” (2017).

The target in experiment [1] is T1, Transcription regulator protein BACH1 (Homo sapiens) (UniProt O14867).
T1 sequence (whole entry): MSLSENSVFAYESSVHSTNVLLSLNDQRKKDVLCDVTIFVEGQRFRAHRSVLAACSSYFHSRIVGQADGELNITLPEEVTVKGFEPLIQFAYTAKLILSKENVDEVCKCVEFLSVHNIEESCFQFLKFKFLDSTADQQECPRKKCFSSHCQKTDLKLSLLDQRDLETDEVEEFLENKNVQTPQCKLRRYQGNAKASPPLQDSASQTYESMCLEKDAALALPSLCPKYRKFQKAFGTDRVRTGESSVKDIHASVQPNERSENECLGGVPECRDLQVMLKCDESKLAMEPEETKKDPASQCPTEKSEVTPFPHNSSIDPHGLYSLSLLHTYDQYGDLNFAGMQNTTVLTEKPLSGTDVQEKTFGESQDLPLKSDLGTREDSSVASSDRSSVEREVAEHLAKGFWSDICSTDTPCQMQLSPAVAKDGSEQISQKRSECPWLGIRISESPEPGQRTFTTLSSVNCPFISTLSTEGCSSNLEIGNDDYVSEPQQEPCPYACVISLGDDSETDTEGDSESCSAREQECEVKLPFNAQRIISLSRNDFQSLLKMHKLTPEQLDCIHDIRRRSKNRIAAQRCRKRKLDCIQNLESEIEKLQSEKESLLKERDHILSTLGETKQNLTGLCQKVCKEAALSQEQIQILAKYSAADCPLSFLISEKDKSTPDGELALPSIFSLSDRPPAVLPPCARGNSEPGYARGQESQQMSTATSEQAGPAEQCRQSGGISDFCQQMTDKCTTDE
Nature of the experiment: Inhibition of Bach1 in normal human lung fibroblasts assessed as induction of HMOX protein expression at 0.078 uM in presence of 3 uM Nrf2 activator DMF incubated for 16 to 18 hrs by immunostaining relative to control.

For experiment [2], the target named is T1, Transcription regulator protein BACH1 (Homo sapiens). The experiment is described as follows: Inhibition of Bach1 in normal human lung fibroblasts assessed as induction of HMOX protein expression at 0.156 uM in presence of 0.1 uM Nrf2 activator DMF incubated for 16 to 18 hrs by immunostaining relative to control.
The target is the same in experiment [3]. The experiment is described as follows: Inhibition of Bach1 in normal human lung fibroblasts assessed as induction of HMOX protein expression at 0.078 uM in presence of 0.03 uM Nrf2 activator DMF incubated for 16 to 18 hrs by immunostaining relative to control.
Experiment [4] has the same target. The experiment is described as follows: Inhibition of Bach1 in normal human lung fibroblasts assessed as induction of HMOX protein expression at 0.039 uM in presence of 0.1 uM Nrf2 activator DMF incubated for 16 to 18 hrs by immunostaining relative to control.
For experiment [5] the target is unchanged. The experiment is described as follows: Inhibition of Bach1 in normal human lung fibroblasts assessed as induction of HMOX protein expression by measuring HMOX positive cells level at 0.156 uM in presence of 30 uM Nrf2 activator DMF incubated for 16 to 18 hrs by immunostaining relative to control DMSO. Set-up: scale not given: the % may be the effect or the level left.

Experiment [6] has the same target. The experiment is described as follows: Inhibition of Bach1 in normal human lung fibroblasts assessed as induction of HMOX protein expression at 2.5 uM incubated for 16 to 18 hrs in presence of 0.0024 uM Nrf2 activator Bardoxolone methyl by immunostaining relative to control.
Experiment [7] shares this target. Nature of the experiment: Inhibition of Bach1 in normal human lung fibroblasts assessed as induction of HMOX protein expression at 0.078 uM incubated for 16 to 18 hrs in presence of 0.039 uM Nrf2 activator Bardoxolone methyl by immunostaining relative to control.
The target is the same in experiment [8]. The experiment is described as follows: Inhibition of Bach1 in normal human lung fibroblasts assessed as induction of HMOX protein expression at 0.156 uM incubated for 16 to 18 hrs in presence of 0.312 uM Nrf2 activator Bardoxolone methyl by immunostaining relative to control.
The target is the same in experiment [9]. Nature of the experiment: Inhibition of Bach1 in normal human lung fibroblasts assessed as induction of HMOX protein expression at 0.078 uM incubated for 16 to 18 hrs in presence of 0.0024 uM Nrf2 activator Bardoxolone methyl by immunostaining relative to control.
The target is the same in experiment [10]. Nature of the experiment: Inhibition of Bach1 in normal human lung fibroblasts assessed as induction of HMOX protein expression at 0.078 uM incubated for 16 to 18 hrs in presence of 0.312 uM Nrf2 activator Bardoxolone methyl by immunostaining relative to control.
The target is the same in experiment [11]. Nature of the experiment: Inhibition of Bach1 in normal human lung fibroblasts assessed as induction of HMOX protein expression at 0.039 uM incubated for 16 to 18 hrs in presence of 0.0048 uM Nrf2 activator Bardoxolone methyl by immunostaining relative to control.
Experiment [12] has the same target. Nature of the experiment: Inhibition of Bach1 in normal human lung fibroblasts assessed as induction of HMOX protein expression at 2.5 uM incubated for 16 to 18 hrs in presence of 0.156 uM Nrf2 activator Bardoxolone methyl by immunostaining relative to control.
The target is the same in experiment [13]. The experiment is described as follows: Inhibition of Bach1 in normal human lung fibroblasts assessed as induction of HMOX protein expression at 2.5 uM incubated for 16 to 18 hrs in presence of 0.0097 uM Nrf2 activator Bardoxolone methyl by immunostaining relative to control.
Experiment [14] has the same target. The experiment is described as follows: Inhibition of Bach1 in normal human lung fibroblasts assessed as induction of HMOX protein expression at 1.25 uM incubated for 16 to 18 hrs in presence of 0.0024 uM Nrf2 activator Bardoxolone methyl by immunostaining relative to control.
For experiment [15] the target is unchanged. Nature of the experiment: Inhibition of Bach1 in normal human lung fibroblasts assessed as induction of HMOX protein expression at 0.625 uM incubated for 16 to 18 hrs in presence of 0.0048 uM Nrf2 activator Bardoxolone methyl by immunostaining relative to control.
For experiment [16] the target is unchanged. Nature of the experiment: Inhibition of Bach1 in normal human lung fibroblasts assessed as induction of HMOX protein expression at 0.312 uM incubated for 16 to 18 hrs in presence of 0.078 uM Nrf2 activator Bardoxolone methyl by immunostaining relative to control.
The target is the same in experiment [17]. The experiment is described as follows: Inhibition of Bach1 in normal human lung fibroblasts assessed as induction of HMOX protein expression at 0.625 uM incubated for 16 to 18 hrs by immunostaining relative to control.
Experiment [18] has the same target. The experiment is described as follows: Inhibition of Bach1 in normal human lung fibroblasts assessed as induction of HMOX protein expression at 5 uM incubated for 16 to 18 hrs by immunostaining relative to control.
Experiment [19] shares this target. Nature of the experiment: Inhibition of Bach1 in normal human lung fibroblasts assessed as induction of HMOX protein expression at 0.019 uM incubated for 16 to 18 hrs in presence of 0.0097 uM Nrf2 activator Bardoxolone methyl by immunostaining relative to control.
Experiment [20] shares this target. The experiment is described as follows: Inhibition of Bach1 in normal human lung fibroblasts assessed as induction of HMOX protein expression at 0.019 uM incubated for 16 to 18 hrs in presence of 0.019 uM Nrf2 activator Bardoxolone methyl by immunostaining relative to control.
Experiment [21] has the same target. Nature of the experiment: Inhibition of Bach1 in normal human lung fibroblasts assessed as induction of HMOX protein expression at 0.312 uM incubated for 16 to 18 hrs in presence of 0.039 uM Nrf2 activator Bardoxolone methyl by immunostaining relative to control.

For `COCCNC(=O)c1cnc2c(c1)nc(Nc1nc3ccc(OC(F)(F)F)cc3s1)n2C`, the fold change (FC) in experiment [1] came to 3.12; in experiment [2] it was 1.73; in experiment [3], 1.12; in experiment [4], 1.08. In addition, the Activity in experiment [5] was found to be 98.2%.

As to `CN(C)C(=O)CNC(=O)c1ccc2c(c1)nc(Nc1nc3ccc(C(F)(F)F)cc3s1)n2C`, the fold change (FC) in experiment [1] was found to be 4.33; in experiment [2], 2.54; in experiment [3], 1.37; in experiment [4], 1.35. Further, the Activity in experiment [5] was 84%.

As for `CNC(=O)c1ccc2c(c1)nc(Nc1nc3ccc(OC(F)(F)F)cc3s1)n2C`, the fold change (FC) in [6] turned out to be 18.8; in experiment [7], 17.8; in [8] it was 16; in experiment [9] it was 4.25; in experiment [10], 15.3; in experiment [11] it was 3.04. The fold change (FC) in [12] was determined as 12.5; in experiment [13], 19.4; in experiment [14], 16.1; in experiment [15], 17.1; in experiment [16] it was 21.1; in experiment [17], 15. Also, the fold change (FC) in [18] was 17.7; in experiment [19], 7.14; in experiment [20], 10; in experiment [21], 19.6.

On to `Cn1c(Nc2nc3ccc(C(F)(F)F)cc3s2)nc2cc(C(=O)NCCOCCO)ccc21`, for which the fold change (FC) was found to be 4.2 in [1], 4.89 in experiment [2], 2.35 in [3] and 1.52 in experiment [4]. Further, the Activity in [5] was 92.2%.
